For one experiment, the target named is T1, CDK2/cyclin A (Homo sapiens, UniProt P24941).
T1 construct: made in house; host or cells: CDK2: insect cells (baculovirus); cyclin A: E. coli
Description: Inhibition of CDK2/cyclin A retinoblastoma kinase activity (Ki; % inhibition). Format: biochemical. As to conditions: at 0.03 μM. In short, it runs like this: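 Apparent Ki values came from fitting concentration-dependent activity data to competitive (or competitive tight-binding) models, and % inhibition from single 30 nM screens of library compounds. Activity was measured as ³²P/³³P incorporation from 25 μM ATP into an Rb substrate by 10 or 19 nM CDK2/delta cyclin A at 30 °C over 60–75 min, pH 7.4.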

For the next experiment, the system named is HCT-116 cell line. Description: Inhibition of cell growth, MTT tetrazolium salt assay. In kind it is cell-based. The settings on record: for HCT-116 % Inhibition at 0.25 μM: HCT-116, at 0.25 μM; for HCT-116 % Inhibition at 0.1 μM: HCT-116, at 0.1 μM. In short, it runs like this:
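HCT-116 cells in McCoy's 5A were dosed 4 h after plating with compounds in 0.5% DMSO and grown 3–5 days at 37 °C. Then 0.2 mg/mL MTT was added for 4 h and formazan absorbance read at 540 nm. IC50/IC90 came from semi-log plots against DMSO-only controls.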

The target in a further experiment is T2, human CDK4/cyclin D3 (Homo sapiens, UniProt P11802).
T2 construct: made in house; host or cells: insect cells co-infected with baculovirus vectors
Description: Inhibition of CDK4/cyclin D retinoblastoma kinase activity (Ki; % inhibition). Format: biochemical. The settings on record: at 0.03 μM. In short, it runs like this:
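Radiometric filter-binding read-out: Rb residues 386-928 phosphorylated by 5 nM CDK4/cyclin D3(1-264) from baculovirus-infected insect cells, 25 μM ATP, HEPES pH 7.4, 30 °C. Run 20 min, or 60 min for tight-binding inhibitors. Screening at 30 nM theoretical compound; apparent Ki by competitive-inhibition fitting.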

T2 sequence (P11802 whole entry): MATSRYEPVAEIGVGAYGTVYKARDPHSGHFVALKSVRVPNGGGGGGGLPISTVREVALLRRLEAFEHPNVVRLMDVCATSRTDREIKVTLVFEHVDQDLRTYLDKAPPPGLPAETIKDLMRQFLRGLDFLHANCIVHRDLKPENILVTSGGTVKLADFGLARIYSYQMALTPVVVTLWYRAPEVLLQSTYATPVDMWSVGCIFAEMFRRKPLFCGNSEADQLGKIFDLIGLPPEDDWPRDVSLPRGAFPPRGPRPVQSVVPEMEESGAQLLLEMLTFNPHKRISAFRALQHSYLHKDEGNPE
T2 sequence (P30281 1-264 partner limits assumed): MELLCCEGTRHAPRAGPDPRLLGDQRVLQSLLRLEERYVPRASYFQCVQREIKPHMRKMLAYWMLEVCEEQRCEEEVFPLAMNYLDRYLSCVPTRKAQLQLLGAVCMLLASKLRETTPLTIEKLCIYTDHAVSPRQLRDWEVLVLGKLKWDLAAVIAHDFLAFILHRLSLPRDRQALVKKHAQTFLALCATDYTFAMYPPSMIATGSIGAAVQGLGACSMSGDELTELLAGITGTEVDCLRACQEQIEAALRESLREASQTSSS

For the compound `CC(C)c1ccc(NC(=O)c2ccc(Nc3nc(N)c(C(=O)c4c(F)cccc4F)s3)cc2)cc1` [Example G69], the “CDK2 % Inhibition at 0.03 μM” value on CDK2/cyclin A is recorded as 7%. In the experiment with HCT-116 cell line, the “HCT-116 % Inhibition at 0.25 μM” value stood at 70%. In addition, the “CDK4 % Inhibition at 0.03 μM” value at human CDK4/cyclin D3 is on record as 3%.
For the compound `CC(C)N(Cc1ccccc1)C(=O)c1ccc(Nc2nc(N)c(C(=O)c3c(F)cccc3F)s2)cc1` [Example G70], the “CDK2 % Inhibition at 0.03 μM” value at CDK2/cyclin A was −4%. The “HCT-116 % Inhibition at 0.25 μM” value with HCT-116 cell line worked out at 53%. For the same compound, the “CDK4 % Inhibition at 0.03 μM” value on human CDK4/cyclin D3 is listed as 10%.
For `CN(CCc1ccccn1)C(=O)c1ccc(Nc2nc(N)c(C(=O)c3c(F)cccc3F)s2)cc1` [Example G71] the same measures were 3%, 59% and 16%.
For `CC(C)CN(C)C(=O)c1ccc(Nc2nc(N)c(C(=O)c3c(F)cccc3F)s2)cc1` [Example G72] the same measures were 2%, 54% and 12%.
For `CC(=O)NC1CCN(C(=O)c2ccc(Nc3nc(N)c(C(=O)c4c(F)cccc4F)s3)cc2)C1` (stereo not drawn) [Example G73] the same measures were 19%, 56% and 18%.
Consider `Nc1nc(Nc2ccc(C(=O)Nc3ccc(O)cc3)cc2)sc1C(=O)c1c(F)cccc1F` [Example G74], for which, on CDK2/cyclin A, the “CDK2 % Inhibition at 0.03 μM” value is 23%. For the same compound, the “HCT-116 % Inhibition at 0.25 μM” value in the experiment on HCT-116 cell line came to 78%. Also, the “CDK4 % Inhibition at 0.03 μM” value at human CDK4/cyclin D3 was 18%.
For `Nc1nc(Nc2ccc(C(=O)Nc3ccc4ncccc4c3)cc2)sc1C(=O)c1c(F)cccc1F` [Example G75] the same measures were 21%, 64% and 15%.
For `Nc1nc(Nc2ccc(C(=O)Nc3cccc(Cl)c3)cc2)sc1C(=O)c1c(F)cccc1F` [Example G76] the same measures were 7%, 61% and 7%.
For the compound `COC(=O)[C@H](C(C)C)N(C)C(=O)c1ccc(Nc2nc(N)c(C(=O)c3c(F)cccc3F)s2)cc1` [Example G77], the “CDK2 % Inhibition at 0.03 μM” value at CDK2/cyclin A is 9%. In addition, in the experiment with HCT-116 cell line, the “HCT-116 % Inhibition at 0.25 μM” value was determined as 51%. The “CDK4 % Inhibition at 0.03 μM” value at human CDK4/cyclin D3 was found to be 6%.
For `Nc1nc(Nc2ccc(C(=O)N3CCN(C=O)CC3)cc2)sc1C(=O)c1c(F)cccc1F` [Example G78] the same measures were 11%, 58% and 13%.
For `Nc1nc(Nc2ccc(C(=O)N3CCc4ccccc4C3)cc2)sc1C(=O)c1c(F)cccc1F` [Example G79] the same measures were 2%, 51% and 10%.
For `CN(C(=O)c1ccc(Nc2nc(N)c(C(=O)c3c(F)cccc3F)s2)cc1)C1CCCC1` [Example G80] the same measures were 3%, 36% and 7%.
In the case of `CCN1CCN(C(=O)c2ccc(Nc3nc(N)c(C(=O)c4c(F)cccc4F)s3)cc2)CC1` [Example G81], the “CDK2 % Inhibition at 0.03 μM” value on CDK2/cyclin A worked out at 15%. Further, the “HCT-116 % Inhibition at 0.25 μM” value with HCT-116 cell line was 58%. Moreover, the “CDK4 % Inhibition at 0.03 μM” value at human CDK4/cyclin D3 was 19%.
For `Nc1nc(Nc2ccc(C(=O)Nc3ccc(S(N)(=O)=O)cc3)cc2)sc1C(=O)c1c(F)cccc1F` [Example G82] the same measures were 24%, 48% and 15%.
Regarding `Nc1nc(Nc2ccc(C(=O)Nc3cccc4cnccc34)cc2)sc1C(=O)c1c(F)cccc1F` [Example G83], the “CDK2 % Inhibition at 0.03 μM” value on CDK2/cyclin A turned out to be 16%. Further, the “HCT-116 % Inhibition at 0.25 μM” value in the experiment on HCT-116 cell line is reported as 64%. Moreover, the “CDK4 % Inhibition at 0.03 μM” value at human CDK4/cyclin D3 is on record as 7%.
For `Nc1nc(Nc2ccc(C(=O)Nc3ccc(Cl)c(Cl)c3)cc2)sc1C(=O)c1c(F)cccc1F` [Example G84] the same measures were 9%, 63% and 3%.
On to `NC(=O)c1ccc(NC(=O)c2ccc(Nc3nc(N)c(C(=O)c4c(F)cccc4F)s3)cc2)cc1` [Example G85], for which the “CDK2 % Inhibition at 0.03 μM” value on CDK2/cyclin A worked out at 7%. In the experiment on HCT-116 cell line, the “HCT-116 % Inhibition at 0.25 μM” value is given as 56%. The “CDK4 % Inhibition at 0.03 μM” value at human CDK4/cyclin D3 turned out to be 6%.
Consider `COc1cc(NC(=O)c2ccc(Nc3nc(N)c(C(=O)c4c(F)cccc4F)s3)cc2)cc(OC)c1` [Example G86], for which the “CDK2 % Inhibition at 0.03 μM” value on CDK2/cyclin A stood at 10%. Besides, in the experiment with HCT-116 cell line, the “HCT-116 % Inhibition at 0.1 μM” value was 39% and the “HCT-116 % Inhibition at 0.25 μM” value was found to be 73%. Further, on human CDK4/cyclin D3, the “CDK4 % Inhibition at 0.03 μM” value amounted to 0%.
For `Cc1nccc(-c2cccc(NC(=O)c3ccc(Nc4nc(N)c(C(=O)c5c(F)cccc5F)s4)cc3)c2)n1` [Example G87] the same measures were −40%, 54%, 78% and 13%.
With `Nc1nc(Nc2ccc(C(=O)NCCCN3CCCC3=O)cc2)sc1C(=O)c1c(F)cccc1F` [Example G88], on CDK2/cyclin A, the “CDK2 % Inhibition at 0.03 μM” value is listed as −23%. In the experiment on HCT-116 cell line, the “HCT-116 % Inhibition at 0.1 μM” value is on record as 24% and the “HCT-116 % Inhibition at 0.25 μM” value worked out at 49%. The “CDK4 % Inhibition at 0.03 μM” value on human CDK4/cyclin D3 came to 6%.
With `CC(C)C(C)NC(=O)c1ccc(Nc2nc(N)c(C(=O)c3c(F)cccc3F)s2)cc1` (stereo not drawn) [Example G89], the “CDK2 % Inhibition at 0.03 μM” value at CDK2/cyclin A is listed as −20%. Moreover, in the experiment with HCT-116 cell line, the “HCT-116 % Inhibition at 0.1 μM” value came out at 30% and the “HCT-116 % Inhibition at 0.25 μM” value came to 59%. The “CDK4 % Inhibition at 0.03 μM” value on human CDK4/cyclin D3 was −4%.
For `CCCCC(CC)NC(=O)c1ccc(Nc2nc(N)c(C(=O)c3c(F)cccc3F)s2)cc1` (stereo not drawn) [Example G90] the same measures were −30%, 24%, 54% and 2%.
For `Nc1nc(Nc2ccc(C(=O)NCCc3ccccc3)cc2)sc1C(=O)c1c(F)cccc1F` [Example G91] the same measures were −19%, 34%, 68% and 9%.
For `CC(CNC(=O)c1ccc(Nc2nc(N)c(C(=O)c3c(F)cccc3F)s2)cc1)N(C)C` (stereo not drawn) [Example G92] the same measures were −7%, 85%, 98% and 10%.
Turning to `CN(C)CCCCNC(=O)c1ccc(Nc2nc(N)c(C(=O)c3c(F)cccc3F)s2)cc1` [Example G93], the “CDK2 % Inhibition at 0.03 μM” value on CDK2/cyclin A is recorded as −4%. Further, in the experiment with HCT-116 cell line, the “HCT-116 % Inhibition at 0.1 μM” value came to 26% and the “HCT-116 % Inhibition at 0.25 μM” value was found to be 58%. In addition, the “CDK4 % Inhibition at 0.03 μM” value at human CDK4/cyclin D3 was found to be 11%.
On to `CC(O)c1ccc(NC(=O)c2ccc(Nc3nc(N)c(C(=O)c4c(F)cccc4F)s3)cc2)cc1` (stereo not drawn) [Example G94], for which the “CDK2 % Inhibition at 0.03 μM” value on CDK2/cyclin A is on record as 10%. Further, in the experiment with HCT-116 cell line, the “HCT-116 % Inhibition at 0.1 μM” value is listed as 38% and the “HCT-116 % Inhibition at 0.25 μM” value stood at 80%. Besides, the “CDK4 % Inhibition at 0.03 μM” value at human CDK4/cyclin D3 amounted to 4%.
